Structures can show the parent of a compound that is named as a salt.
Each compound was assayed against Human BACE-1 (Homo sapiens, UniProt P56817) (assay: Test 1: Inhibition of Human BACE-1). Settings: Test 1; recombinant BACE-1 (extracellular domain), acetate buffer pH 4.5, 1 hour with test compound at room temperature, fluorescence-quenched peptide substrate; read-out: Bace IC50.
Human BACE-1, sequence (P56817 46-457 limits assumed): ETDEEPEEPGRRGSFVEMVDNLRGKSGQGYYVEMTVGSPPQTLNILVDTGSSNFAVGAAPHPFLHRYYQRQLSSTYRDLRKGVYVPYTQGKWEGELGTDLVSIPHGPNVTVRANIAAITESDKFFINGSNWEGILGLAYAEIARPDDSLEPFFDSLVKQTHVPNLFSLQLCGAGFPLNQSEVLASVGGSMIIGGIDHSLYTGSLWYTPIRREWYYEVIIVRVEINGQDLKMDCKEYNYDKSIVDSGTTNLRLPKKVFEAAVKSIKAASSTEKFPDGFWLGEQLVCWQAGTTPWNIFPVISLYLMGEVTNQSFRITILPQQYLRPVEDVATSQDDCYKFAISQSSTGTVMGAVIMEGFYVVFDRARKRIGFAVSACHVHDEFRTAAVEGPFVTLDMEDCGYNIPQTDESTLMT
Type: biochemical
With NC1=N[C@@](c2cc(NC(=O)c3ccc(Br)cn3)ccc2F)(C(F)F)CCOC1 [Example 97, 5-Bromo-pyridine-2-carboxylic acid[3-((S)-3-amino-5-difluoromethyl-2,5,6,7-tetrahydro-[1,4]oxazepin-5-yl)-4-fluoro-phenyl]-amide hydrochloride] the IC50 was 18 nM.
N#Cc1ccc(C(=O)Nc2ccc(F)c(C3(C(F)(F)F)CCOCC(N)=N3)c2)nc1 (stereo not drawn) [Example 98, 5-Cyano-pyridine-2-carboxylic acid [3-(3-amino-5-trifluoromethyl-2,5,6,7-tetrahydro-[1,4]oxazepin-5-yl)-4-fluoro-phenyl]-amide hydrochloride] showed an IC50 of 240 nM.
In the case of CC1(c2cc(NC(=O)c3ccc(Br)cn3)ccc2F)N=C(N)COCC1(F)F (stereo not drawn) [Example 101, 5-Bromo-pyridine-2-carboxylic acid [3-(3-amino-6,6-difluoro-5-methyl-2,5,6,7-tetrahydro-[1,4]oxazepin-5-yl)-4-fluoro-phenyl]-amide], the IC50 is reported as 30 nM.
NC1=NC(c2cccc(NC(=O)c3cc(Br)co3)c2)(C(F)F)COC1 (stereo not drawn) [Example 102, 4-Bromo-furan-2-carboxylic acid [3-(5-amino-3-difluoromethyl-3,6-dihydro-2H-[1,4]oxazin-3-yl)-phenyl]-amide hydrochloride] was tested, and the IC50 was 890 nM.
NC1=NC(c2cccc(NC(=O)c3ccc(O)nn3)c2)(C(F)F)COC1 (stereo not drawn) [Example 103, 6-Hydroxy-pyridazine-3-carboxylic acid [3-(5-amino-3-difluoromethyl-3,6-dihydro-2H-[1,4]oxazin-3-yl)-phenyl]-amide hydrochloride] gave an IC50 of 7800 nM.
CCc1nc(C(=O)Nc2cccc(C3(C(F)F)COCC(N)=N3)c2)co1 (stereo not drawn) [Example 105, 2-Ethyl-oxazole-4-carboxylic acid [3-(5-amino-3-difluoromethyl-3,6-dihydro-2H-[1,4]oxazin-3-yl)-phenyl]-amide hydrochloride] gave an IC50 of 5200 nM.
Cc1nc(C(=O)Nc2cccc(C3(C(F)F)COCC(N)=N3)c2)c(C)o1 (stereo not drawn) [Example 106, 2,5-Dimethyl-oxazole-4-carboxylic acid [3-(5-amino-3-difluoromethyl-3,6-dihydro-2H-[1,4]oxazin-3-yl)-phenyl]-amide hydrochloride] was tested, and the IC50 was 4000 nM.
For COc1cc(Br)cnc1C(=O)Nc1cccc(C2(C(F)F)COCC(N)=N2)c1 (stereo not drawn) [Example 107, 5-Bromo-3-methoxy-pyridine-2-carboxylic acid [3-(5-amino-3-difluoromethyl-3,6-dihydro-2H-[1,4]oxazin-3-yl)-phenyl]-amide hydrochloride], the IC50 was 820 nM.
In the case of NC1=NC(c2cccc(NC(=O)c3ncc(Br)cc3O)c2)(C(F)F)COC1 (stereo not drawn) [Example 108, 5-Bromo-3-hydroxy-pyridine-2-carboxylic acid [3-(5-amino-3-difluoromethyl-3,6-dihydro-2H-[1,4]oxazin-3-yl)-phenyl]-amide hydrochloride], the IC50 is reported as 28 nM.
COCCOc1cnc(C(=O)Nc2cccc(C3(C(F)F)COCC(N)=N3)c2)cn1 (stereo not drawn) [Example 109, hydrochloride] was tested, and the IC50 was 1200 nM.
For NC1=NC(c2cccc(NC(=O)c3cnc(C(F)F)cn3)c2)(C(F)F)COC1 (stereo not drawn) [Example 110, 5-Difluoromethyl-pyrazine-2-carboxylic acid [3-(5-amino-3-difluoromethyl-3,6-dihydro-2H-[1,4]oxazin-3-yl)-phenyl]-amide hydrochloride], the IC50 was 1900 nM.
NC1=N[C@@](c2cc(NC(=O)c3ncc(Cl)cc3Cl)ccc2F)(C(F)F)COC1 [Example 111, 3,5-Dichloro-pyridine-2-carboxylic acid [3-((R)-5-amino-3-difluoromethyl-3,6-dihydro-2H-[1,4]oxazin-3-yl)-4-fluoro-phenyl]-amide hydrochloride] gave an IC50 of 25 nM.
NC1=N[C@@](c2cc(NC(=O)c3ncc(F)cc3F)ccc2F)(C(F)F)COC1 [Example 113, 3,5-Difluoro-pyridine-2-carboxylic acid [3-((R)-5-amino-3-difluoromethyl-3,6-dihydro-2H-[1,4]oxazin-3-yl)-4-fluoro-phenyl]-amide hydrochloride] was tested, and the IC50 was 120 nM.
For Cc1c(C(=O)Nc2ccc(F)c([C@]3(C(F)F)COCC(N)=N3)c2)oc2ccc(Br)cc12 [Example 114, 5-Bromo-3-methyl-benzofuran-2-carboxylic acid [3-((R)-5-amino-3-difluoromethyl-3,6-dihydro-2H-[1,4]oxazin-3-yl)-4-fluoro-phenyl]-amide hydrochloride], the IC50 was 6 nM.
With Cl.[2H]c1nc(C(=O)Nc2ccc(F)c([C@]3(C(F)F)COCC(N)=N3)c2)c(C([2H])([2H])[2H])c([2H])c1Cl [Example 115, 5-Chloro-4,6-dideutero-3-trideuteromethyl-pyridine-2-carboxylic acid [3-((R)-5-amino-3-difluoromethyl-3,6-dihydro-2H-[1,4]oxazin-3-yl)-4-fluoro-phenyl]-amide hydrochloride] the IC50 was 6 nM.
In the case of NC1=N[C@@](c2cc(NC(=O)c3ncc(Br)cc3Cl)ccc2F)(C(F)F)COC1 [Example 117, 5-Bromo-3-chloro-pyridine-2-carboxylic acid [3-((R)-5-amino-3-difluoromethyl-3,6-dihydro-2H-[1,4]oxazin-3-yl)-4-fluoro-phenyl]-amide hydrochloride], the IC50 is reported as 18 nM.
In the case of NC1=N[C@@](c2cc(NC(=O)c3ccc(Br)cn3)ccc2F)(C(F)F)COC1 [Example 118, 5-Bromo-pyridine-2-carboxylic acid [3-((R)-5-amino-3-difluoromethyl-3,6-dihydro-2H-[1,4]oxazin-3-yl)-4-fluoro-phenyl]-amide hydrochloride], the IC50 is reported as 14 nM.
Work on NC1=N[C@@](c2cc(NC(=O)c3ncc(Br)cc3O)ccc2F)(C(F)F)COC1 [Example 119, 5-Bromo-3-hydroxy-pyridine-2-carboxylic acid [3-((R)-5-amino-3-difluoromethyl-3,6-dihydro-2H-[1,4]oxazin-3-yl)-4-fluoro-phenyl]-amide hydrochloride] yielded an IC50 of 10 nM.
CCOc1ccc(C(=O)Nc2ccc(F)c([C@]3(C(F)F)COCC(N)=N3)c2)nc1 [Example 120, 5-Ethoxy-pyridine-2-carboxylic acid [3-((R)-5-amino-3-difluoromethyl-3,6-dihydro-2H-[1,4]oxazin-3-yl)-4-fluoro-phenyl]-amide] was tested, and the IC50 was 180 nM.
With NC1=N[C@@](c2cc(NC(=O)c3ncc(Br)cn3)ccc2F)(C(F)F)COC1 [Example 121, 5-Bromo-pyrimidine-2-carboxylic acid [3-((R)-5-amino-3-difluoromethyl-3,6-dihydro-2H-[1,4]oxazin-3-yl)-4-fluoro-phenyl]-amide hydrochloride] the IC50 was 36 nM.
NC1=N[C@@](c2cc(NC(=O)c3cnc(C(F)F)cn3)ccc2F)(C(F)F)COC1 [Example 122, 5-Difluoromethyl-pyrazine-2-carboxylic acid [3-((R)-5-amino-3-difluoromethyl-3,6-dihydro-2H-[1,4]oxazin-3-yl)-4-fluoro-phenyl]-amide hydrochloride] gave an IC50 of 200 nM.
For NC1=N[C@@](c2cc(NC(=O)c3cnc(OCC(F)F)cn3)ccc2F)(C(F)F)COC1 [Example 123, 5-(2,2-Difluoro-ethoxy)-pyrazine-2-carboxylic acid [3-((R)-5-amino-3-difluoromethyl-3,6-dihydro-2H-[1,4]oxazin-3-yl)-4-fluoro-phenyl]-amide hydrochloride], the IC50 was 97 nM.
NC1=N[C@@](c2cc(NC(=O)c3cnc(OCC(F)(F)F)cn3)ccc2F)(C(F)F)COC1 [Example 124, 5-(2,2,2-Trifluoro-ethoxy)-pyrazine-2-carboxylic acid [3-((R)-5-amino-3-difluoromethyl-3,6-dihydro-2H-[1,4]oxazin-3-yl)-4-fluoro-phenyl]-amide hydrochloride] showed an IC50 of 25 nM.
Work on NC1=N[C@@](c2cc(NC(=O)c3cc(Br)co3)ccc2F)(C(F)F)COC1 [Example 125, 4-Bromo-furan-2-carboxylic acid [3-((R)-5-amino-3-difluoromethyl-3,6-dihydro-2H-[1,4]oxazin-3-yl)-4-fluoro-phenyl]-amide hydrochloride] yielded an IC50 of 78 nM.
NC1=N[C@@](c2cc(NC(=O)c3cc4ccccn4n3)ccc2F)(C(F)F)COC1 [Example 126, Pyrazolo[1,5-a]pyridine-2-carboxylic acid [3-((R)-5-amino-3 difluoromethyl-3,6-dihydro-2H [1,4]oxazin-3-yl)-4-fluoro-phenyl]-amide hydrochloride] was tested, and the IC50 was 740 nM.
Compound Cc1nc(C(=O)Nc2ccc(F)c([C@]3(C(F)F)COCC(N)=N3)c2)co1 [Example 127, 2-Methyl-oxazole-4-carboxylic acid [3-((R)-5-amino-3-difluoromethyl-3,6-dihydro-2H-[1,4]oxazin-3-yl)-4-fluoro-phenyl]-amide hydrochloride] has an IC50 of 98 nM.
With Cc1nc(C(=O)Nc2ccc(F)c([C@]3(C(F)F)COCC(N)=N3)c2)c(C)o1 [Example 128, 2,5-Dimethyl-oxazole-4-carboxylic acid [3-((R)-5-amino-3-difluoromethyl-3,6-dihydro-2H-[1,4]oxazin-3-yl)-4-fluoro-phenyl]-amide] the IC50 was 170 nM.
Compound COc1cc(Br)cnc1C(=O)Nc1ccc(F)c([C@]2(C(F)F)COCC(N)=N2)c1 [Example 130, 5-Bromo-3-methoxy-pyridine-2-carboxylic acid [3-((R)-5-amino-3-difluoromethyl-3,6-dihydro-2H-[1,4]oxazin-3-yl)-4-fluoro-phenyl]-amide hydrochloride] has an IC50 of 93 nM.
CCc1nc(C(=O)Nc2ccc(F)c([C@]3(C(F)F)COCC(N)=N3)c2)co1 [Example 131, 2-Ethyl-oxazole-4-carboxylic acid [3-((R)-5-amino-3-difluoromethyl-3,6-dihydro-2H-[1,4]oxazin-3-yl)-4-fluoro-phenyl]-amide hydrochloride] showed an IC50 of 330 nM.
For NC1=N[C@@](c2cc(NC(=O)c3ccc(C(F)F)cn3)ccc2F)(C(F)F)COC1 [Example 132, 5-Difluoromethyl-pyridine-2-carboxylic acid [3-((R)-5-amino-3-difluoromethyl-3,6-dihydro-2H-[1,4]oxazin-3-yl)-4-fluoro-phenyl]-amide hydrochloride], the IC50 was 87 nM.

Source: patent US20120172359A1 (NOVARTIS AG, priority 2010, published 2012)
